Source: PMC10928712, “High Target Homology Does Not Guarantee Inhibition: Aminothiazoles Emerge as Inhibitors of Plasmodium falciparum” (ACS Infectious Diseases, 2024)

Columns and labels:
P. falciparum 3D7 [1] = test: Method II growth-inhibition assay (PicoGreen, 3 days), 3D7; type: cell-based; settings: Plasmodium falciparum, 3D7, method II
From the text: (§1) Fidock (Columbia University).

P. falciparum NF54 [2] = test: Method II growth-inhibition assay (PicoGreen, 3 days), NF54; type: cell-based; settings: Plasmodium falciparum; chloroquine-sensitive NF54, method II
From the text: as §1

P. falciparum 3D7 [3] = test: Method III growth inhibition assay (HRP2-ELISA, 3 days), 3D7; type: cell-based, Plasmodium falciparum; settings: Plasmodium falciparum, 3D7, 3D7, method III (HRP2 assay), drc package of R; read-out: IC50 P. falciparum 3D7 (method III)
P. falciparum Dd2 = test: Method III growth inhibition assay (HRP2-ELISA, 3 days), Dd2; type: cell-based, Plasmodium falciparum; settings: Plasmodium falciparum, DD2, chloroquine-resistant Dd2, method III
Hep G2 cells = test: Hep G2 viability assay (counter screen); type: cell-based, human; settings: cytotoxicity, 48 h
P. falciparum 3D7 [4] = test: IDP rescue assay, P. falciparum 3D7; type: cell-based; settings: Plasmodium falciparum
Procedure: (§2) Fidock (Columbia University). […] P. falciparum cultures were treated as described in method II. For IDP (Isoprenoids.com) rescue experiments, 125 μM IDP was added to the appropriate wells for the duration of the experiment. The well-described DXR inhibitor FSM was used as a positive control. IC50 values were calculated by nonlinear regression analysis using GraphPad Prism software. All experiments were performed at least in triplicate, and data reported represent the mean ± SD.

P. falciparum NF54 [5] = test: IDP rescue assay, P. falciparum NF54; type: cell-based; settings: Plasmodium falciparum
Procedure: as §2

[6] = tested on: MEP pathway and TCA cycle metabolites in P. falciparum 3D7; test: LC-MS/MS profiling of MEP pathway, TCA cycle, glycolytic and pentose phosphate metabolites in P. falciparum; type: cell-based, Plasmodium falciparum; settings: 12 h
P. falciparum 3D7-DXPS+ = test: Growth inhibition of PfDXPS overexpressing parasites (3D7-DXPS+); type: cell-based; settings: Plasmodium falciparum, 3D7, read-out: PfDXPS IC50
From the text: The open reading frame (ORF) encoding 1-deoxy-D-xylulose-5-phosphate synthase (PfDXPS; PF3D7_1337200) was amplified from genomic DNA isolated from unsynchronized P. falciparum 3D7 cultures using the Platinum PCR SuperMix High Fidelity (Invitrogen). Forward and reverse primers contained restriction sites for KpnI and AvrII in sense and antisense orientation, respectively (oligonucleotides pfDXPS-Kpn1-S: […]; pfDXPSmyc-Avr2-AS: […] ). PCR products and the transfection vector pARL1a-hDHFR PfARG-GFP were digested with KpnI and AvrII, purified (Gel extraction Kit and PCR purification kit; Qiagen), and cloned into the transfection vector yielding the construct for overexpression pARL-DXS-strep. XL 10-Gold E. coli ultracompetent cells (Agilent Technologies) were transformed with the generated construct to amplify the plasmid and colonies checked using restriction analysis and sequencing of the plasmid. Bacterial clones carrying the overexpression construct and the empty pARL1a vector (MOCK plasmid) were amplified in overnight cultures, isolated (Plasmid Maxi Kit; QIAGEN), and subsequently used to transfect P. falciparum 3D7 ring-stage parasites, as already described.[59] Briefly, 120 μg of plasmid DNA was centrifuged and air-dried, and the pellet was resuspended in TE buffer and cytomix reagent and mixed with the P. falciparum culture. Parasites were transfected using electroporation and selected with WR 99210. The generation and characterization of the PfTPK overexpression cell line has been reported before.[60]
P. falciparum cultures were treated as described in method I. For target specification toward PfTPK and PfDXPS, compounds were tested in comparison against overexpressing cell lines and the respective MOCK line containing only the transfected vector backbone. Parasite viability/proliferation was determined.

M. tuberculosis DXPS = biological target: M. tuberculosis DXPS; parameters: method as in PMID 36320685; settings: Morrison inhibition constant, slow-, tight-binding; read-out: Ki* MtDXPS; cited from earlier work
[7] = tested on: Mycobacterium tuberculosis H37Rv strain; parameters: method as in PMID 36320685; settings: cited from earlier work
[8] = tested on: MEP pathway metabolites in E. coli ΔTolC; test: LC-MS/MS profiling of MEP pathway metabolites in E. coli; settings: 48 μM (10× the IC50), 2 h, pyruvate concentration drops
Procedure: Overnight cultures of E. coli ΔTolC were diluted 1:1000 in LB media and grown at 37 °C until reaching the mid logarithmic phase (OD600 = 0.67–7.2). […] For normalization, the OD600 was determined after 2 h of treatment with the inhibitor. Cells were pelleted by centrifugation for 5 min at 3000g at 4 °C. The supernatants were removed, and cells were washed twice with 1× PBS. The supernatants were removed, and the pellets were stored at −80 °C until analysis. […]
For pyruvate analysis from the E. coli samples, the LC separation was done on the Shimadzu Nexera II using the Poroshell 120 (Agilent, 2.7 μm, 150 × 2.1 mm) flowing at 0.5 mL/min. […] Metabolites were detected using MRM transitions that were previously optimized using standards. […] For quantification, an external standard curve was prepared using a series of standard samples containing different concentrations of metabolites and fixed concentration of the internal standard. […]

[9] = tested on: blood-stage P. falciparum 3D7; settings: Plasmodium falciparum

Compound: Cc1nc(N)sc1-c1csc(Nc2ccc(C(F)(F)F)cc2)n1 [compound 1]
- IC50 (P. falciparum 3D7 [1]; 95% CI in brackets, read-out: IC50 B): 1600 nM
- IC50 (P. falciparum 3D7 [1]; read-out: IC50 3D7-II): 1700 ± 600 nM
- IC50 (P. falciparum NF54 [2]): 800 ± 100 nM
- IC50 (P. falciparum 3D7 [3]): 600 ± 200 nM
- IC50 (P. falciparum Dd2): 800 ± 400 nM
- IC50 (Hep G2 cells; Homo sapiens, HepG2, 48 h): 54000 ± 2400 nM
- IC50 (Hep G2 cells): > 50000 nM
- IC50 (P. falciparum 3D7 [4]; 3D7, 72 h, + IDP (125 μM)): 2400 ± 200 nM
- IC50 (P. falciparum 3D7 [4]; 3D7, without IDP): 1900 ± 200 nM
- IC50 (P. falciparum NF54 [5]; NF54, 72 h, + IDP (125 μM)): 500 nM
- IC50 (P. falciparum NF54 [5]; NF54, without IDP): 800 ± 100 nM
- DOXP, Mean of + 1 ([6]; 1 at 7.65 μM (5× IC50), UNT 1,163, P >0,99999): 1,163
- MEcDP, Mean of + 1 ([6]; 1 at 7.65 μM, UNT 11,24, P 0,720090): 10,20
- PEP, Mean of + 1 ([6]; 1 at 7.65 μM, UNT 11,98, P 0,005029): 5,297
- GC3P, Mean of + 1 ([6]; 1 at 7.65 μM, UNT 13,48, P 0,003896): 6,757
- 3PGA, Mean of + 1 ([6]; 1 at 7.65 μM, UNT 14,78, P 0,037010): 8,127
- G6P, Mean of + 1 ([6]; 1 at 7.65 μM, UNT 17,23, P 0,044056): 6,793
- MAL, Mean of + 1 ([6]; 1 at 7.65 μM, UNT 53,67, P 0,001940): 23,30
- 2PGA, Mean of + 1 ([6]; 1 at 7.65 μM, UNT 61,07, P 0,050194): 31,49
- CIT, Mean of + 1 ([6]; 1 at 7.65 μM, UNT 64,80, P 0,008553): 25,15
- CDP-ME, Mean of + 1 ([6]; 1 at 7.65 μM, UNT 0,06667, P 0,587914): 0,07667
- S7P, Mean of + 1 ([6]; 1 at 7.65 μM, UNT 90,64, P 0,340281): 54,93
- PYR, Mean of + 1 ([6]; 1 at 7.65 μM, UNT 102,5, P 0,030535): 28,19
- G1P/F6P, Mean of + 1 ([6]; 1 at 7.65 μM, UNT 103,0, P 0,112890): 57,13
- LAC, Mean of + 1 ([6]; 1 at 7.65 μM, UNT 104,2, P 0,388380): 80,23
- SUC, Mean of + 1 ([6]; 1 at 7.65 μM, UNT 118,0, P 0,002161): 60,23
- DMADP, Mean of + 1 ([6]; 1 at 7.65 μM, UNT 0,1667, P 0,032540): 0,1033
- HDMADP, Mean of + 1 ([6]; 1 at 7.65 μM, UNT 0,2200, P 0,306022): 0,1833
- MEP, Mean of + 1 ([6]; 1 at 7.65 μM, UNT 0,4233, P 0,070645): 0,3100
- FUM, Mean of + 1 ([6]; 1 at 7.65 μM, UNT 1668, P 0,003295): 727,7
- ACO, Mean of + 1 ([6]; 1 at 7.65 μM, UNT 1,877, P 0,144422): 1,140
- RU5P/RUP, Mean of + 1 ([6]; 1 at 7.65 μM, UNT 5,757, P 0,038874): 2,520
- IC50 (P. falciparum 3D7-DXPS+): 2080 nM
- Ki (M. tuberculosis DXPS): 210 ± 30 nM
- MIC [7]: 5 to 10 µM
- MEP pathway metabolite concentrations upon inhibitor treatment [8]: all downstream metabolites of DXPS are increased
- IC50 [9]: 600 to 1700 nM
